Assay results published in PubChem BioAssay AID1918940 (Molecular Pharmacology Branch, DTP, NCI, 2023).

System: NCI-H211 complex spheroid viability
Assay: Anticancer human tumor NCI-H211 cell line growth inhibition [LSD1];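 further: luminescent viability read after seven days of drug exposure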;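 on viability, T/C: 100% = DMSO vehicle control viability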
Settings: for IC50: curve of first compound; for viability, T/C: stronger effect = lower value
Outline: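 Drug combinations with the LSD1 inhibitor iadademstat tested on tumor cells co-cultured as spheroids with endothelial cells and mesenchymal stem cells. Concentrations descended in half-log increments from clinical Cmax or 10 microM.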

[1] = second compound 0.1 µM, first compound 0.000316 µM
[2] = second compound 0.1 µM, first compound 0.001 µM
[3] = second compound 0.1 µM, first compound 0.00316 µM
[4] = second compound 0.1 µM, first compound 0.01 µM
[5] = second compound 0.1 µM, first compound 0.0316 µM
[6] = second compound 0.1 µM, first compound 0.1 µM
[7] = second compound 0.316 µM, first compound 0.000316 µM
[8] = second compound 0.316 µM, first compound 0.001 µM
[9] = second compound 0.316 µM, first compound 0.00316 µM
[10] = second compound 0.316 µM, first compound 0.01 µM
[11] = second compound 0.316 µM, first compound 0.0316 µM
[12] = second compound 0.316 µM, first compound 0.1 µM
[13] = second compound 1 µM, first compound 0.000316 µM
[14] = second compound 1 µM, first compound 0.001 µM
[15] = second compound 1 µM, first compound 0.00316 µM
[16] = second compound 1 µM, first compound 0.01 µM
[17] = second compound 1 µM, first compound 0.0316 µM
[18] = second compound 1 µM, first compound 0.1 µM
[19] = second compound 3.16 µM, first compound 0.000316 µM
[20] = second compound 3.16 µM, first compound 0.001 µM
[21] = second compound 3.16 µM, first compound 0.00316 µM
[22] = second compound 3.16 µM, first compound 0.01 µM
[23] = second compound 3.16 µM, first compound 0.0316 µM
[24] = second compound 3.16 µM, first compound 0.1 µM
[25] = second compound 10 µM, first compound 0.000316 µM
[26] = second compound 10 µM, first compound 0.001 µM
[27] = second compound 10 µM, first compound 0.00316 µM
[28] = second compound 10 µM, first compound 0.01 µM
[29] = second compound 10 µM, first compound 0.0316 µM
[30] = second compound 10 µM, first compound 0.1 µM

`CC(C)CC(NC(=O)C(Cc1ccccc1)NC(=O)c1cnccn1)B(O)O` (stereo not given) + NC1CCC(NC2CC2c2ccccc2)CC1 showed an IC50 (second compound 0.1 µM) of 2 nM, an IC50 (second compound 0.316 µM) of 2.05 nM and an IC50 (second compound 1 µM) of 1.79 nM. The IC50 (second compound 3.16 µM) was 1.68 nM, the IC50 (second compound 10 µM) was less than 0.316 nM and the viability, T/C [1] was 73.8%. The viability, T/C [2] was 88.6%, the viability, T/C [3] was 29.3% and the viability, T/C [4] was 2.16%. It also gave a viability, T/C [5] of 3.13%, a viability, T/C [6] of 6.8% and a viability, T/C [7] of 70.9%. It also gave a viability, T/C [8] of 76%, a viability, T/C [9] of 35.8% and a viability, T/C [10] of 1.76%. It also gave a viability, T/C [11] of 0.22%, a viability, T/C [12] of 0.13% and a viability, T/C [13] of 62.5%. The viability, T/C [14] was 72.7%, the viability, T/C [15] was 32.7% and the viability, T/C [16] was 1.57%. For the same molecule, the viability, T/C [17] was 0.23%, the viability, T/C [18] was 2.46% and the viability, T/C [19] was 64.3%. The viability, T/C [20] was 72.3%, the viability, T/C [21] was 27.4% and the viability, T/C [22] was 1.43%. For the same molecule, the viability, T/C [23] was 0.97%, the viability, T/C [24] was 0.14% and the viability, T/C [25] was 44.9%. It also gave a viability, T/C [26] of 45.3%, a viability, T/C [27] of 14.2% and a viability, T/C [28] of 0.55%. It also gave a viability, T/C [29] of 0.17% and a viability, T/C [30] of 0.14%.

`CC(C)CC(NC(=O)CNC(=O)c1cc(Cl)ccc1Cl)B1OC(=O)CC(CC(=O)O)(C(=O)O)O1` (stereo not given) + NC1CCC(NC2CC2c2ccccc2)CC1 was tested, and the IC50 (second compound 0.1 µM) was 15.4 nM, the IC50 (second compound 0.316 µM) was 18 nM and the IC50 (second compound 1 µM) was 15.3 nM. It also gave an IC50 (second compound 3.16 µM) of 11.8 nM, an IC50 (second compound 10 µM) of less than 0.316 nM and a viability, T/C [1] of 81.6%. For the same molecule, the viability, T/C [2] was 90.2%, the viability, T/C [3] was 103% and the viability, T/C [4] was 65.1%. The viability, T/C [5] was 22.5%, the viability, T/C [6] was 7.53% and the viability, T/C [7] was 81.5%. The viability, T/C [8] was 93.3%, the viability, T/C [9] was 111% and the viability, T/C [10] was 76.9%. It also gave a viability, T/C [11] of 23.5%, a viability, T/C [12] of 7.18% and a viability, T/C [13] of 79.3%. For the same molecule, the viability, T/C [14] was 85%, the viability, T/C [15] was 109% and the viability, T/C [16] was 65.3%. It also gave a viability, T/C [17] of 21.4%, a viability, T/C [18] of 6.25% and a viability, T/C [19] of 59.8%. It also gave a viability, T/C [20] of 65%, a viability, T/C [21] of 95.6% and a viability, T/C [22] of 53%. It also gave a viability, T/C [23] of 18.1%, a viability, T/C [24] of 5.75% and a viability, T/C [25] of 44.9%. It also gave a viability, T/C [26] of 37.5%, a viability, T/C [27] of 51.2% and a viability, T/C [28] of 35.5%. For the same molecule, the viability, T/C [29] was 12% and the viability, T/C [30] was 2.35%.

In the case of `Nc1ccccc1NC(=O)c1ccc(CNC(=O)OCc2cccnc2)cc1` + NC1CCC(NC2CC2c2ccccc2)CC1, the IC50 (second compound 0.1 µM) is reported as 11.9 nM, the IC50 (second compound 0.316 µM) is reported as 13.2 nM and the IC50 (second compound 1 µM) is reported as 9.95 nM. It also gave an IC50 (second compound 3.16 µM) of less than 9.49 nM, an IC50 (second compound 10 µM) of less than 9.49 nM and a viability, T/C (second compound 0.1 µM, first compound 0.00949 µM) of 54.5%. The viability, T/C (second compound 0.1 µM, first compound 0.03 µM) was 32.1%, the viability, T/C (second compound 0.1 µM, first compound 0.0949 µM) was 4.58% and the viability, T/C (second compound 0.1 µM, first compound 0.3 µM) was 1.24%. It also gave a viability, T/C (second compound 0.1 µM, first compound 0.949 µM) of 0.63%, a viability, T/C (second compound 0.1 µM, first compound 3 µM) of 0.12% and a viability, T/C (second compound 0.316 µM, first compound 0.00949 µM) of 55.7%. It also gave a viability, T/C (second compound 0.316 µM, first compound 0.03 µM) of 35.9%, a viability, T/C (second compound 0.316 µM, first compound 0.0949 µM) of 4.66% and a viability, T/C (second compound 0.316 µM, first compound 0.3 µM) of 1.07%. It also gave a viability, T/C (second compound 0.316 µM, first compound 0.949 µM) of 0.8%, a viability, T/C (second compound 0.316 µM, first compound 3 µM) of 0.15% and a viability, T/C (second compound 1 µM, first compound 0.00949 µM) of 51%. The viability, T/C (second compound 1 µM, first compound 0.03 µM) was 27.2%, the viability, T/C (second compound 1 µM, first compound 0.0949 µM) was 3.65% and the viability, T/C (second compound 1 µM, first compound 0.3 µM) was 0.99%. For the same molecule, the viability, T/C (second compound 1 µM, first compound 0.949 µM) was 0.68%, the viability, T/C (second compound 1 µM, first compound 3 µM) was 0.11% and the viability, T/C (second compound 3.16 µM, first compound 0.00949 µM) was 38%. It also gave a viability, T/C (second compound 3.16 µM, first compound 0.03 µM) of 20.3%, a viability, T/C (second compound 3.16 µM, first compound 0.0949 µM) of 3.37% and a viability, T/C (second compound 3.16 µM, first compound 0.3 µM) of 0.53%. The viability, T/C (second compound 3.16 µM, first compound 0.949 µM) was 0.39%, the viability, T/C (second compound 3.16 µM, first compound 3 µM) was 0.12% and the viability, T/C (second compound 10 µM, first compound 0.00949 µM) was 29.4%. It also gave a viability, T/C (second compound 10 µM, first compound 0.03 µM) of 6.92%, a viability, T/C (second compound 10 µM, first compound 0.0949 µM) of 1% and a viability, T/C (second compound 10 µM, first compound 0.3 µM) of 0.3%. For the same molecule, the viability, T/C (second compound 10 µM, first compound 0.949 µM) was 0.22% and the viability, T/C (second compound 10 µM, first compound 3 µM) was 5.88%.

`O=C(c1cc(Cc2n[nH]c(=O)c3ccccc23)ccc1F)N1CCN(C(=O)C2CC2)CC1` + NC1CCC(NC2CC2c2ccccc2)CC1 was tested, and the IC50 (second compound 0.1 µM) was less than 31.6 nM, the IC50 (second compound 0.316 µM) was less than 31.6 nM and the IC50 (second compound 1 µM) was less than 31.6 nM. It also gave an IC50 (second compound 3.16 µM) of less than 31.6 nM, an IC50 (second compound 10 µM) of less than 31.6 nM and a viability, T/C [5] of 41.8%. The viability, T/C [6] was 26.4%, the viability, T/C (second compound 0.1 µM, first compound 0.316 µM) was 6.09% and the viability, T/C (second compound 0.1 µM, first compound 1 µM) was 2.71%. It also gave a viability, T/C (second compound 0.1 µM, first compound 3.16 µM) of 2.42%, a viability, T/C (second compound 0.1 µM, first compound 10 µM) of 2.07% and a viability, T/C [11] of 44.4%. For the same molecule, the viability, T/C [12] was 27.7%, the viability, T/C (second compound 0.316 µM, first compound 0.316 µM) was 6.03% and the viability, T/C (second compound 0.316 µM, first compound 1 µM) was 2.23%. The viability, T/C (second compound 0.316 µM, first compound 3.16 µM) was 2.6%, the viability, T/C (second compound 0.316 µM, first compound 10 µM) was 2.2% and the viability, T/C [17] was 41.1%. For the same molecule, the viability, T/C [18] was 27.1%, the viability, T/C (second compound 1 µM, first compound 0.316 µM) was 5.68% and the viability, T/C (second compound 1 µM, first compound 1 µM) was 2.69%. For the same molecule, the viability, T/C (second compound 1 µM, first compound 3.16 µM) was 3.18%, the viability, T/C (second compound 1 µM, first compound 10 µM) was 2.72% and the viability, T/C [23] was 35.5%. It also gave a viability, T/C [24] of 21.8%, a viability, T/C (second compound 3.16 µM, first compound 0.316 µM) of 4.95% and a viability, T/C (second compound 3.16 µM, first compound 1 µM) of 1.97%. It also gave a viability, T/C (second compound 3.16 µM, first compound 3.16 µM) of 2.43%, a viability, T/C (second compound 3.16 µM, first compound 10 µM) of 2.46% and a viability, T/C [29] of 18.2%. For the same molecule, the viability, T/C [30] was 11.2%, the viability, T/C (second compound 10 µM, first compound 0.316 µM) was 1.78% and the viability, T/C (second compound 10 µM, first compound 1 µM) was 1.3%. For the same molecule, the viability, T/C (second compound 10 µM, first compound 3.16 µM) was 1.25% and the viability, T/C (second compound 10 µM, first compound 10 µM) was 1.37%.
